Series [1] concerns the target β-glucosidase. The experiment in a line: Inhibitory activity against β-glucosidase (p-nitrophenyl-β-D-glucopyranoside hydrolysis, absorbance at 405 nm). Format: biochemical. The following applies: pH 5.6, 37° C., 15 min preincubation, 20 min reaction; enzyme from almonds. An excerpt:
Inhibitory activity of 5-amino-1-(hydroxymethyl)cyclopentane-1,2,3,4-tetraol against β-glucosidase
Samples of β-glucosidase (separated from almonds), p-nitrophenyl-β-D-glucopyranoside, deoxynojirimycin and castanospermine used in this experiment were all purchased from Sigma Chemicals Co.
The test compounds used were 5-amino-1-(hydroxymethyl)cyclopentane-1,2,3,4-tetraol [compound (I)], and deoxynojirimycin or castanospermine, both of which are known compounds having this type of activity.
A mixture of 0.01 unit/ml of β-glucosidase and 100 μl of a buffer solution (pH 5.6) comprising 20 mM of citric acid, 40 mM of disodium phosphate and the compound under test was allowed to stand at 37° C. for 15 minutes. At the end of this time, 50 μl of a buffer solution containing 3 mg/ml of p-nitrophenyl-β-D-glucopyranoside were added to the mixture, which was then allowed to react at 37° C. for 20 minutes. 20 μl of a 1M glycine/sodium hydroxide buffer solution (pH 10.4) were added to the reaction mixture, and the quantity of p-nitrophenol liberated was monitored by absorbance at 405 nm. Table 7 lists the concentrations β-glucosidase by 50% (IC50).

A short description of series [2]: Solubility. Type of series: physicochemical.
The target in series [3] is T1, silkworm trehalase (Bombyx mori, UniProt P32358).
T1 construct: Ten silkworm larvae of the fifth instar (total weight 44 g) were homogenized; from tissue; host or cells: whole silkworm larvae, fifth instar; acetone precipitate of homogenate supernatant
T1 sequence (P32358 16-579): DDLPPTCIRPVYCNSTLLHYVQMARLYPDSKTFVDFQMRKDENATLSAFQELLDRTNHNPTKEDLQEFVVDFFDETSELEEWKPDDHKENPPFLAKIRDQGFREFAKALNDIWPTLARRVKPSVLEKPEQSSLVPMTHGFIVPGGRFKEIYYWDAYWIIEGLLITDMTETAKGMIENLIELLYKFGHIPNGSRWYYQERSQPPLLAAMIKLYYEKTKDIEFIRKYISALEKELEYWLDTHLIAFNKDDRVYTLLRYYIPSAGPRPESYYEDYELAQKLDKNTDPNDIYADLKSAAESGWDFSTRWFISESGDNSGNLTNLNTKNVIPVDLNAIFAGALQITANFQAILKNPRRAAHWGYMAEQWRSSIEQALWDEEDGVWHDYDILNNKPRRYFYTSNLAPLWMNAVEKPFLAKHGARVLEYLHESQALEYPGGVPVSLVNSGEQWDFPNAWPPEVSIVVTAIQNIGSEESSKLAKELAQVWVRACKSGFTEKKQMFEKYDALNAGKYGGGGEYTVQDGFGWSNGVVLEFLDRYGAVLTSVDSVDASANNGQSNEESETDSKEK
The experiment in a line: Inhibitory activity against silkworm trehalase (crude enzyme from silkworm larvae, glucose determination). Type of series: biochemical. The note with it: pH 5.6, 37° C., 15 min preincubation, 15 min reaction; substrate trehalose; read-out: concentration needed to inhibit the enzyme activity by 50% (IC50), silkworm trehalase (converted). On the procedure: Inhibitory activity of trehazolin against silkworm trehalase
Ten silkworm larvae of the fifth instar (total weight 44 g) were homogenized using a Polytrone (trade mark) homogenizer in 120 ml of a buffer solution (pH 5.6) prepared using 20 mM of citric acid and 40 mM of disodium phosphate for 2 minutes, whilst ice-cooling (the same buffer solution was also used hereafter). The homogenized mixture was then centrifuged at a speed of 6,000 rpm for 10 minutes, and the supernatant was separated. 240 ml of acetone were added to 120 ml of the supernatant, whist ice-cooling and stirring, and the resulting mixture was centrifuged at a speed of 9,000 rpm for 20 minutes. The sediment was separated and dissolved in water, and the resulting solution was lyophilized, to give 2.0 g of the crude enzyme.
130 μl of the above buffer solution, 50 μl of a sample solution containing trehazolin at various concentrations and 50 μl of a silkworm enzyme solution prepared as described above and containing 4 mg/ml of the enzyme were placed in a test-tube, and the mixture was shaken on a water bath kept at 37° C. for 15 minutes. […]
The reaction was conducted using glucose C-test Wako (a product of Wako Pure Chemical Industries Ltd.) and 10-fold quantities of the sample solution over that of the standard procedure.

Series [4] addresses T2, rat sucrase (Rattus norvegicus, UniProt P23739).
T2 construct: a brush border membrane enzyme solution of a rat small intestine was prepared from the small intestines; from tissue; host or cells: small intestine brush border membrane, male Wistar rats
The experiment in a line: Inhibitory activity against rat sucrase (brush border membrane enzyme of rat small intestine, glucose liberated at 492 nm). Format: biochemical, rat (Wistar strain). The following applies: pH 6.2, 37°, 20 minutes; substrate sucrose; read-out: concentration required to inhibit the activity of rat sucrase by 50% (IC50) (converted). Here is the method: Inhibitory activity of 2-amino-4-(hydroxymethyl)-3a-5,6,6a-tetrahydro-4H-cyclopent[d]oxazole-4,5,6-triol [compound (II)] against rat sucrase
According to the method of M. Kessler et al. Biochimica et Biophysica Acta, 506, 136-154(1978)], a brush border membrane enzyme solution of a rat small intestine was prepared from the small intestines of three male rats of the Wistar strain and suspended in 3 ml of physiological saline.
A sample of 4-aminoantipyrine (A 4382) was purchased from Sigma Chemical Co., and samples of peroxidase (Grade I) and glucose oxidase (Grade I) were purchased from Boehringer Mannheim Co. A buffer solution (pH 6.2) comprising 20 mM of citric acid and 40 mM of disodium phosphate was used as the diluent in the following experiment.
Each well of a micro-titer plate with 96 wells (a product of Falcon Co.) was filled with 130 μl in all of a mixture which contained 0.2 mg of bovine serum albumin (Sigma, A 7906), 3 units of glucose oxidase, 0.132 unit of peroxidase, 20 μg of 4-aminoantipyrine, 40 μg of phenol, 3 μ mole of sucrose and a test compound. To the well were added 20 μl of 100-fold diluted solution of a brush border membrane enzyme solution of rat small intestine. The mixture was allowed to react at 37° for 20 minutes and the quantity of glucose liberated was monitored by absorbance at 492 nm. […]

Each structure is given as a SMILES string.

T2 sequence (P23739 1014-1841 limits assumed): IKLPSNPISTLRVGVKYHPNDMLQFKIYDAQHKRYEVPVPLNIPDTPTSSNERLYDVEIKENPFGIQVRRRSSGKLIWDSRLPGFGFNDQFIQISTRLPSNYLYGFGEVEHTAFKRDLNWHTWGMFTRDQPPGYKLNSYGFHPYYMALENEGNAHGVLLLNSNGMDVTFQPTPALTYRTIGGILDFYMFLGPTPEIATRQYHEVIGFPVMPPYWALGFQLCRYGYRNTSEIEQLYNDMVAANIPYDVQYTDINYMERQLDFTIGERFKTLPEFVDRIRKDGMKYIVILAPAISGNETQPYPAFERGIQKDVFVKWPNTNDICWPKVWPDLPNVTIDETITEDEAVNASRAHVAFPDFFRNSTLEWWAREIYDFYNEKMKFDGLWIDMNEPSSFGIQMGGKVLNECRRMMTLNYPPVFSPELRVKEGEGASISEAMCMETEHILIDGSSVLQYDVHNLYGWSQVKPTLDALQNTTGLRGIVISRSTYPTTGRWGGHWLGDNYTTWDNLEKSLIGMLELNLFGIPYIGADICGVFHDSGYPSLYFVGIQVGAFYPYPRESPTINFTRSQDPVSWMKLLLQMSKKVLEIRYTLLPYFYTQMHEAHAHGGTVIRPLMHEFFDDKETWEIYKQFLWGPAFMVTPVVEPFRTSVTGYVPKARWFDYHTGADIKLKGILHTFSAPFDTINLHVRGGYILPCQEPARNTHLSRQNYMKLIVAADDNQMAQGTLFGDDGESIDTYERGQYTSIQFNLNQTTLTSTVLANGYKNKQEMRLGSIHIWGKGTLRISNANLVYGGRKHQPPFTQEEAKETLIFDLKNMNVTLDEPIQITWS
T2 sequence (P23739 1-1013 partner limits assumed): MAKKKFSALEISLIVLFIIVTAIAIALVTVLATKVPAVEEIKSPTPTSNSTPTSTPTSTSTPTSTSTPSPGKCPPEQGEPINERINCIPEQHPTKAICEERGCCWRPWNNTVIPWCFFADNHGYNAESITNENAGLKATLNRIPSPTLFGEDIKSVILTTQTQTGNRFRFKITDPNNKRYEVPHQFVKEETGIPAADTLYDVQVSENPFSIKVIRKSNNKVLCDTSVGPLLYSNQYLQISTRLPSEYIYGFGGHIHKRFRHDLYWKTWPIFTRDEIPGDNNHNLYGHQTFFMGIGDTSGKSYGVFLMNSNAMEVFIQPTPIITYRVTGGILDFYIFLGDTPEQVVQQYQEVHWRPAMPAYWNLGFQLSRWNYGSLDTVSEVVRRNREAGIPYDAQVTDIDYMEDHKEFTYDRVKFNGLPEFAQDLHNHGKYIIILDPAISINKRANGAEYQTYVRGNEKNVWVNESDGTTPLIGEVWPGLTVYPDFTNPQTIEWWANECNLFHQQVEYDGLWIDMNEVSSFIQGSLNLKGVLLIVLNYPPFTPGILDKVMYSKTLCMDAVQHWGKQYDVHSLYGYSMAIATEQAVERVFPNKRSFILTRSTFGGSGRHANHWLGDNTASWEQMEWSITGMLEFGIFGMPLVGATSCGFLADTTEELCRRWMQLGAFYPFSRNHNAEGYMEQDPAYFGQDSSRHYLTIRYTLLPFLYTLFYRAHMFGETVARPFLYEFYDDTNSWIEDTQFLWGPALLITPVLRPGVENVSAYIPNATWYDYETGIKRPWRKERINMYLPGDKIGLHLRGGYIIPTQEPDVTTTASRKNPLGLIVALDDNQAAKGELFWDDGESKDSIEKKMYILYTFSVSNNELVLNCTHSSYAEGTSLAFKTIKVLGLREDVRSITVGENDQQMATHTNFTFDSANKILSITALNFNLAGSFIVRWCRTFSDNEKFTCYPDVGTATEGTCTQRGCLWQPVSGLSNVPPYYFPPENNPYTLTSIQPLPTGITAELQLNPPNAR

Consider `NC1C(O)C(O)C(O)C1(O)CO` (stereo not drawn) [Compound (I), 5-amino-1-(hydroxymethyl)cyclopentane-1,2,3,4-tetraol], for which, in series [1], the “50% inhibitory concentration of β-glucosidase (IC50)” value stood at 1.0 µg/mL. For the same molecule, in series [2], the Solubility in acetone entry was “insoluble”, the Solubility in chloroform entry is given as “insoluble” and the Solubility in water result is reported as “soluble”.
In the case of `O[C@H]1[C@H](O)[C@@H](O)CN2CC[C@H](O)[C@H]12` [Castanospermine, castanospermine], the “50% inhibitory concentration of β-glucosidase (IC50)” value in series [1] is 4.3 µg/mL.
Same read-out and setting: the same measure for `OC[C@H]1NC[C@H](O)[C@@H](O)[C@@H]1O` [Deoxynojirimycin, deoxynojirimycin]: 15 µg/mL.
Turning to `OCC1OC(NC2=NC3C(O2)C(O)C(O)C3(O)CO)C(O)C(O)C1O` (stereo not drawn) [trehazolin, reference compound], the IC50 in series [3] is 0.00546 µM. In series [2], the Solubility in acetone entry is listed as “insoluble”, the Solubility in chloroform entry is “insoluble” and the Solubility in water result is “soluble”. In addition, the Solubility in methanol result in series [2] (methanol) is recorded as “soluble”.
As for `NC1=NC2C(O1)C(O)C(O)C2(O)CO` (stereo not drawn) [(II), 2-amino-4-(hydroxymethyl)-3a,5,6,6a-tetrahydro-4H-cyclopent[d]oxazole-4,5,6-triol], the IC50 in series [4] was 88.2 µM. Moreover, in series [2], the Solubility in acetone result is given as “insoluble”, the Solubility in chloroform entry was “insoluble” and the Solubility in water entry is given as “soluble”.

Source of the values: US5260447A, “Polyhydroxycyclopentane derivatives, their preparation and their therapeutic use” (Sankyo Company, Limited, priority 1992, dated 1993).
